Source: patent US20100113430A1, “THIOXANTHENE DERIVATES USEFUL TO TREAT INFECTIOUS DISEASES” (BKG PHARMA APS, priority 2007, published 2010)
In brackets after ≈: the same amount, converted by molar mass.

Assays:
Type in all cases: cell-based
HIV-1 strain HTLV-IIIB = test: Inhibition of HIV-1 replication in MT4 cells (MTT assay); settings: HIV-1 IIIB 0.005 MOI, six days
Procedure: The antiviral effect of N-dealkyl-trans-flupenthixol and N-dealkyl-trans-clopenthixol was studied by checkerboard studies exposing HIV infected cells to 0-3 μM of trans-clopenthixol. Each experiment was repeated in triple duplicate. MIC values represent the mean values of two separate experiments.
The HIV-1 strain HTLV-IIIB were propagated in H9 cells at 37° C., 5% CO2 using RPMI 1640 with 10% heat-inactivated foetal calf serum (FCS) and antibiotics (growth medium). Culture supernatant was filtered ([…]), aliquoted, and stored at −80° C. until use. The HIV-1 strain was obtained from NIH AIDS Research and Reference Program.
Compounds were examined for possible antiviral activity against strain IIIB of HIV-1 using MT4 cells as target cells. MT4 cells were incubated with virus (0.005 MOI) and growth medium containing the test dilutions of compound(s) for six days in parallel with virus-infected and uninfected control cultures without compound added. Expression of HIV in the cultures was indirectly quantified using the MTT assay as previously described. Compounds mediating less than 30% reduction of HIV expression were considered without biological activity. […] The 50% inhibitory concentration was determined by interpolation from the plots of percent inhibition versus concentration of compound. […]

[1] = system: clinically relevant resistant bacterial isolate S. Aureus; test: Growth inhibition by cis/trans combinations, resistant isolate S. Aureus; settings: Trans-compound 0.5 μg/ml, Cis-compound 0 μg/ml
Procedure: (§1) Cell growth was tested using the Minimal Inhibitory Concentration (MIC) susceptibility tests by use of the microdilution broth method in accordance to the NCCLS Guidelines (NCCLS Guidelines, Methods for Dilution Antimicrobial Susceptibility Tests for Bacteria That Grow Aerobically; Approved Standard, Sixth Edition, Volume 23; Number 2). The minimum inhibitory concentration (MIC), is defined ad the lowest concentration of drug which inhibits growth of the test organism, in the sense that no visible growth is detected (total inhibition of growth). In example 2 MIC of the compounds used on fungal microorganisms was determined from the IC90 measurements according to NCCLS Guidelines.
(§2) A log phase culture of bacteria was diluted with fresh pre-warmed Mueller-Hinton medium and adjusted to a defined OD at 600 nm in order to give a final concentration of 1×10^4-5 bacteria/ml medium. The bacterial culture was transferred to microtiter-plates and culture was added to each well. Drug was added to the bacterial culture in the wells as two-fold dilution series of drug in order to give final concentrations ranging from 0.03 to 128 μg/ml. Trays were incubated at 37° C. by shaking in a robot analyzer, PowerWavex, software KC^4′ Kebo.Lab, Copenhagen, for 16 h and optical densities were measured at 600 nm during the incubation time in order to record growth curves. […]

[2] = system: Enterococcus faecium resistant clinical isolates; test: MIC/IC90, resistant clinical isolates of Enterococcus faecium
Procedure: as §1
(§3) A log phase culture of bacteria was diluted with fresh pre-warmed Mueller-Hinton medium and adjusted to a defined OD at 600 nm in order to give a final concentration of 1×10^4-5 bacteria/ml medium. The bacterial culture was transferred to microtiter-plates and culture was added to each well. Drug was added to the bacterial culture in the wells as two-fold dilution series of drug in order to give final concentrations ranging from 0.03 to 128 μg/ml. Trays were incubated at 37° C. by shaking in a robot analyzer, PowerWavex, software KC^4′ Kebo.Lab, Copenhagen, for 16 h and optical densities were measured at 600 nm during the incubation time in order to record growth curves. Wells containing bacterial culture without drug were used as controls to ensure correct inoculum size and bacterial growth during the incubation. Cultures were tested in order to detect contaminations. Each experiment was repeated in triplicate. MIC values represent the mean values of two separate triplicate experiments. Intra- and interassay variation was <5%.
Inhibition 90 (IC90) is defined as: OD responding a 90% growth inhibition. […]
(§4) Clinically relevant isolates were cultured and assayed as described above.

[3] = system: Candida glabrata Multiresistant isolate; test: MIC of cis- and trans-forms, Candida glabrata multiresistant isolate; settings: Example 4
Procedure: as §1
Cultured microorganisms were assayed as described above. Cis- and trans-isomers of N-dealkyl-clopenthixol was added to the cultures.

[4] = system: Enterococcus faecalis resistant clinical isolates; test: MIC/IC90, resistant clinical isolates of Enterococcus faecalis
Procedure: as §1, §3
(§5) Inhibition 90 (IC90) is defined as: OD responding a 90% growth inhibition.
as §4

[5] = system: resistant and susceptible clinical bacterial isolates; test: Susceptibility of resistant versus susceptible bacterial isolates (Example 3); settings: isolates of Tables 3a and 3b
Procedure: as §1, §2

Gram negative sp. = test: MIC/IC90 broad spectrum, Gram negative sp.; settings: 25 strains, 20 resistant
Procedure: as §1, §3, §5
A broad spectrum of bacteria were cultured and assayed as described above for susceptibility towards N-dealkyl-clopenthixol.

[6] = Enterococcus faecium 16, BLR, CR
[7] = Enterococcus faecalis 10, BLR, CR

Structure (SMILES): Clc1ccc2c(c1)/C(=C/CCN1CCNCC1)c1ccccc1S2 [N-dealkyl-trans-clopenthixol, trans-1-(3-(2-chloro-thioxanthen-9-ylidene)propyl)piperazine]
- EC50 (HIV-1 strain HTLV-IIIB): 2000 nM
- Growth inhibition [1]: 100%
- IC90 ([2]; Enterococcus faecium 11, VanA): 0.6 µg/mL (≈ 1.68 µM)
- MIC ([2]; Enterococcus faecium 11, VanA): 1 µg/mL (≈ 2.8 µM)
- IC90 ([2]; Enterococcus faecium 12, VanA): 0.6 µg/mL (≈ 1.68 µM)
- MIC ([2]; Enterococcus faecium 12, VanA): 1 µg/mL (≈ 2.8 µM)
- IC90 ([2]; Enterococcus faecium 13, VanB): 0.5 µg/mL (≈ 1.4 µM)
- MIC ([2]; Enterococcus faecium 13, VanB): 1 µg/mL (≈ 2.8 µM)
- IC90 ([2]; Enterococcus faecium 14, HLAR): 0.5 µg/mL (≈ 1.4 µM)
- MIC ([2]; Enterococcus faecium 14, HLAR): 1 µg/mL (≈ 2.8 µM)
- IC90 ([2]; Enterococcus faecium 15, HLAR): 0.5 µg/mL (≈ 1.4 µM)
- MIC ([2]; Enterococcus faecium 15, HLAR): 1 µg/mL (≈ 2.8 µM)
- IC90 [2, 6]: 0.6 µg/mL (≈ 1.68 µM)
- MIC [2, 6]: 1 µg/mL (≈ 2.8 µM)
- IC90 ([2]; Enterococcus faecium 17, VanB): 0.5 µg/mL (≈ 1.4 µM)
- MIC ([2]; Enterococcus faecium 17, VanB): 1 µg/mL (≈ 2.8 µM)
- IC90 ([2]; Enterococcus faecium 18, VanB): 0.6 µg/mL (≈ 1.68 µM)
- MIC ([2]; Enterococcus faecium 18, VanB): 1 µg/mL (≈ 2.8 µM)
- IC90 ([2]; Enterococcus faecium 19, VanB): 0.6 µg/mL (≈ 1.68 µM)
- MIC ([2]; Enterococcus faecium 19, VanB): 1 µg/mL (≈ 2.8 µM)
- MIC ([2]; Enterococcus faecium multiresistant isolate, Example 4): 0.5 µg/mL (≈ 1.4 µM)
- MIC [3]: 1.0 µg/mL
- IC90 ([4]; Enterococcus faecalis 1, VanA): 0.6 µg/mL (≈ 1.68 µM)
- MIC ([4]; Enterococcus faecalis 1, VanA): 1 µg/mL (≈ 2.8 µM)
- IC90 ([4]; Enterococcus faecalis 2, VanA): 0.6 µg/mL (≈ 1.68 µM)
- MIC ([4]; Enterococcus faecalis 2, VanA): 1 µg/mL (≈ 2.8 µM)
- MIC ([4]; Enterococcus faecalis 3, VanA): 1 µg/mL (≈ 2.8 µM)
- IC90 ([4]; Enterococcus faecalis 4, VanB): 0.6 µg/mL (≈ 1.68 µM)
- MIC ([4]; Enterococcus faecalis 4, VanB): 1 µg/mL (≈ 2.8 µM)
- IC90 ([4]; Enterococcus faecalis 5, Van B): 1 µg/mL (≈ 2.8 µM)
- MIC ([4]; Enterococcus faecalis 5, Van B): 2 µg/mL (≈ 5.6 µM)
- IC90 ([4]; Enterococcus faecalis 6, VanB): 0.6 µg/mL (≈ 1.68 µM)
- MIC ([4]; Enterococcus faecalis 6, VanB): 1 µg/mL (≈ 2.8 µM)
- IC90 ([4]; Enterococcus faecalis 7, VanA): 0.6 µg/mL (≈ 1.68 µM)
- MIC ([4]; Enterococcus faecalis 7, VanA): 1 µg/mL (≈ 2.8 µM)
- IC90 ([4]; Enterococcus faecalis 8, HLAR): 0.6 µg/mL (≈ 1.68 µM)
- MIC ([4]; Enterococcus faecalis 8, HLAR): 1 µg/mL (≈ 2.8 µM)
- IC90 ([4]; Enterococcus faecalis 9, HLAR): 0.6 µg/mL (≈ 1.68 µM)
- MIC ([4]; Enterococcus faecalis 9, HLAR): 1 µg/mL (≈ 2.8 µM)
- IC90 [4, 7]: 0.6 µg/mL (≈ 1.68 µM)
- MIC [4, 7]: 1 µg/mL (≈ 2.8 µM)
- difference in susceptibility between resistant and susceptible isolates [5]: No difference in susceptibility
- MIC (mean) (Gram negative sp.): 2 µg/mL (≈ 5.6 µM)
- MIC range (Gram negative sp.): 0.5 to 2 µg/mL
